Test results reported in patent US20210275498A1, “IMIDAZOLYL ETHANAMIDE PENTANDIOIC ACID FOR USE IN THERAPY OF SYMPTOMS RELATED TO EXPOSURE TO LETHAL RADIATION” (priority 2018, published 2021).

How the values were obtained:
C57BL/6 mice [1] = experiment: Gross pathology and histopathology (testes degeneration, bone marrow cellularity) after whole-body irradiation; type: in vivo; set-up: key to Supporting variable: Testes degradation (trend): positive trend (descriptively) +; negative trend (descriptively) −; no difference (descriptively) 0; details: for severity of testes degradation compared to Group 2: Day 14
Excerpt: (§1) FIG. 13 Testes. (A): Percentage of severity of testes degeneration according to four categories (minimal, mild, moderate and marked) in group 2 (VL (POx1); 2), group 3 (ML (IPx2); 3), group 4 (ML (POx2); 4) and group 5 (ML (POx1); 5). (B): Percentage of severity of testes degeneration according to four categories (minimal, mild, moderate and marked) in group 2 (VL (POx1);2), 6 (GL (SCx1); 6) and 7 (M/GL (PO/SCx1); 7). (C): Percentage of severity of testes degeneration according to four categories (minimal, mild, moderate and marked) in group 8 (VH (POx1); 8 and 9 (MH (POx1); 9).
as §1, with “14 Bone marrow cellularity.” for “13 Testes.”, “bone marrow cellularity decrease” for “severity of testes degeneration”

C57BL/6 mice [2] = experiment: Peripheral hematology after whole-body irradiation; type: in vivo; set-up: key to Supporting variable: Hematology (trend): positive trend (descriptively) +; negative trend (descriptively) −; no difference (descriptively) 0
Excerpt: The primary outcome of this study was mortality and secondary outcomes were changes in hematology (peripheral and bone marrow). The endpoints were chosen to follow Animal Rule requirements that state that animal study endpoint be clearly related to the clinical benefit (generally, the enhancement of survival or prevention of major morbidity). The secondary endpoints were chosen to potentially contribute to an understanding of the disease or condition and a characterization of the treatment effect.

[3] = Group 4 ML (POx2): 25 mg/kg per os, Day −3 to 0 (6x), prophylactic, 5.8 Gy
[4] = Group 5 ML (POx1): 50 mg/kg per os SID Day −2, −1, 0, prophylactic, 5.8 Gy

Row | Molecule | severity of testes degradation compared to Group 2 (C57BL/6 mice [1]; Group 3 ML (IPx2): 25 mg/kg IP, Day −3 to 0 (6x), prophylactic, 5.8 Gy) | severity of testes degradation compared to Group 2 (C57BL/6 mice [1]; [3]) | severity of testes degradation compared to Group 2 (C57BL/6 mice [1]; [4]) | Supporting variable: Testes degradation (trend) (C57BL/6 mice [1]; [3]) | Supporting variable: Testes degradation (trend) (C57BL/6 mice [1]; [4]) | Supporting variable: Testes degradation (trend) (C57BL/6 mice [1]; Group 9 MH (POx1): 50 mg/kg per os SID Day 1, 2, 3, therapeutic, 6.0 Gy) | hemoglobin, red blood cells, hematocrit compared to group 8 (C57BL/6 mice [2]; Day 14 and Day 30, Group 9 MH (POx1): 50 mg/kg per os SID Day 1, 2, 3, therapeutic, 6.0 Gy) | Supporting variable: Hematology (trend) (C57BL/6 mice [2]; [3]) | testes degeneration, proportion by severity category (C57BL/6 mice [1]; Day 14, insignificant (p=0.078), Group 6 GL (SCx1): 0.34 mg/kg SC SID Day 1, 2, 3, therapeutic, 5.8 Gy) | hemoglobin and hematocrit, red blood cells compared to control group 2 (C57BL/6 mice [2]; Day 14, Group 6 GL (SCx1): 0.34 mg/kg SC SID Day 1, 2, 3, therapeutic, 5.8 Gy) | median WBC and neutrophil count compared to control Group 2 (C57BL/6 mice [2]; Day 30, Group 6 GL (SCx1): 0.34 mg/kg SC SID Day 1, 2, 3, therapeutic, 5.8 Gy)
1 | O=C(O)CCCC(=O)NCCc1c[nH]cn1 [Myelo001, 5-{[2-(1H-imidazol-4-yl)ethyl]amino}-5-oxo-pentanoic acid] | reduced | reduced | reduced | + | + | + | in favor of group 9 | 0 |  |  | 
2 | G-CSF: Neupogen (Filgrastim; Granulocyte colony-stimulating factor; G-CSF), positive control article, Amgen (protein, UniProt P09919 31-207, looked up, filgrastim, Neupogen (Filgrastim; Granulocyte colony-stimulating factor; G-CSF), positive control article, Amgen) Granulocyte …: TPLGPASSLPQSFLLKCLEQVRKIQGDGAALQEKLVSECATYKLCHPEELVLLGHSLGIPWAPLSSCPSQALQLAGCLSQLHSGLFLYQGLLQALEGISPELGPTLDTLQLDVADFATTIWQQMEELGMAPALQPTQGAMPAFASAFQRRAGGVLVASHLQSFLEVSYRVLRHLAQP |  |  |  |  |  |  |  |  | higher proportions of testes in the minimal category | increased | trend in the increase
